Among the test systems are A498 renal; CAKI-1 renal; CCRF-CEM leukemia; COLO 205 colon; HL-60(TB) leukemia; NCI-H23 lung; OVCAR-3 ovarian; SW-620 colon; SK-MEL-2 melanoma; PC-3 prostate.
Holding throughout (test): NCI tumour cell line growth inhibition, 48 h

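Where inhibition never reached the appropriate level, the endpoint shown equals the highest concentration tested. Otherwise, values were interpolated linearly from a five-concentration, 48-hour dose response in 96-well plates. GI50 = concentration required for 50% inhibition of growth. TGI: total growth inhibition.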

For `COc1ccc(NC(=O)COC(=O)c2cccc3c(=O)c4ccccc4[nH]c23)cc1`, the TGI in the assay with A498 renal amounted to 39.6 µM; with CAKI-1 renal, 67.9 µM; in the assay with CCRF-CEM leukemia, 28 µM; in the assay with COLO 205 colon, 33.3 µM; with HL-60(TB) leukemia it was 25.8 µM; in the assay on NCI-H23 lung, 32 µM. The TGI with OVCAR-3 ovarian amounted to 43.8 µM; in the assay on SW-620 colon, 60.1 µM.

Consider `O[C@@H]1CCCN1Cc1cc2cc3c(cc2c2cc(OCc4ccccc4)ccc12)OCO3`, for which the GI50 was 10.5 µM in the assay with A498 renal; 3.42 µM in the assay on CAKI-1 renal; 4.35 µM in the assay with CCRF-CEM leukemia; 1.7 µM in the assay with COLO 205 colon; 1.94 µM in the assay with HL-60(TB) leukemia; 3.73 µM in the assay on OVCAR-3 ovarian. The figures for the GI50 in the assay on SK-MEL-2 melanoma and in the assay with SW-620 colon were 2.23 µM and 2.21 µM, respectively. Also, the TGI in the assay with A498 renal turned out to be 25.3 µM; in the assay with CAKI-1 renal it was 12.6 µM; in the assay with CCRF-CEM leukemia it was 14.4 µM; in the assay with COLO 205 colon, 3.46 µM; in the assay on HL-60(TB) leukemia it was 4.13 µM; with OVCAR-3 ovarian it was 14.5 µM. The TGI in the assay on SK-MEL-2 melanoma was 4.79 µM; in the assay on SW-620 colon it was 5.75 µM.

`CCCCCCCCCCCCCC(=O)OC(/C=C/C(C)C)C(O)C(O)C(OC)C(=O)NC1CCCCNC1=O` (stereo unspecified): the TGI in the assay with A498 renal is 14.6 µM; in the assay with CAKI-1 renal it was 3.81 µM; in the assay on CCRF-CEM leukemia, 11.9 µM; in the assay with COLO 205 colon it was 3.69 µM; in the assay on HL-60(TB) leukemia, 10.4 µM; in the assay with NCI-H23 lung it was 5 µM. Further, the figures for the TGI in the assay on OVCAR-3 ovarian, with SK-MEL-2 melanoma and in the assay on SW-620 colon were 5.38 µM, 6.03 µM and 4.46 µM, respectively. Also, the GI50 with CCRF-CEM leukemia was 5.7 µM; with NCI-H23 lung, 8.82 µM; with OVCAR-3 ovarian, 6.19 µM; in the assay on SW-620 colon, 4.4 µM.

As for `COCOCc1cc(OCc2ccccc2)c(OC)cc1Br`, the TGI with A498 renal, in the assay on CAKI-1 renal, in the assay with CCRF-CEM leukemia, with COLO 205 colon, with NCI-H23 lung and with OVCAR-3 ovarian was above 100 µM each time. Moreover, the TGI with SK-MEL-2 melanoma and in the assay with SW-620 colon was above 100 µM throughout.

As for `Cc1ccc([N+](=O)[O-])cc1NC(=O)C(=O)Cc1cc(=O)oc2cc(O)ccc12`, the TGI in the assay with A498 renal, in the assay with CAKI-1 renal, with CCRF-CEM leukemia, with COLO 205 colon, with HL-60(TB) leukemia and in the assay with NCI-H23 lung was above 100 µM each time. Moreover, the TGI in the assay with OVCAR-3 ovarian and with SK-MEL-2 melanoma was above 100 µM in each case.

For `O=C1Cc2ccccc2N1c1c(Cl)cccc1Cl`, the TGI with A498 renal was above 100 µM; in the assay on CAKI-1 renal, above 100 µM; in the assay on CCRF-CEM leukemia, above 100 µM; with COLO 205 colon, above 100 µM; in the assay on HL-60(TB) leukemia, 50.8 µM; with NCI-H23 lung, above 100 µM. The TGI in the assay on OVCAR-3 ovarian, in the assay on SK-MEL-2 melanoma and in the assay with SW-620 colon was above 100 µM each time.

`Oc1ccccc1Nc1nc2ccccc2c2occc12`: the GI50 was 1.78 µM in the assay with CAKI-1 renal; 13.3 µM in the assay on COLO 205 colon; 4.48 µM in the assay with NCI-H23 lung; 2.48 µM with OVCAR-3 ovarian; 10.9 µM in the assay on PC-3 prostate; 14.1 µM with SK-MEL-2 melanoma. Further, the GI50 with SW-620 colon was 13.2 µM. Moreover, the TGI with CAKI-1 renal came out at 12.8 µM; with COLO 205 colon, 26 µM; in the assay on NCI-H23 lung, 17.5 µM; in the assay with OVCAR-3 ovarian, 16.3 µM; in the assay with PC-3 prostate, 22.8 µM; with SK-MEL-2 melanoma it was 31 µM. In addition, in the assay with SW-620 colon, the TGI worked out at 26 µM.

As to `O=C1c2cccc3cccc(c23)C(=O)N1CCCCN1CCN(CCCCOc2ccc(-c3nc4ccc(N5CCOCC5)cc4[nH]3)cc2)CC1`, the GI50 was above 100 µM in the assay with A498 renal; above 100 µM in the assay on CAKI-1 renal; above 100 µM in the assay on CCRF-CEM leukemia; above 100 µM with COLO 205 colon; 4.62 µM with HL-60(TB) leukemia; above 100 µM in the assay with NCI-H23 lung. Besides, the GI50 with OVCAR-3 ovarian is 12.1 µM; in the assay with SK-MEL-2 melanoma, above 100 µM; in the assay on SW-620 colon, above 100 µM. The TGI in the assay with A498 renal, in the assay with CAKI-1 renal, in the assay on CCRF-CEM leukemia, with COLO 205 colon, with HL-60(TB) leukemia and in the assay with NCI-H23 lung was above 100 µM in each case. The TGI in the assay with OVCAR-3 ovarian, in the assay on SK-MEL-2 melanoma and in the assay on SW-620 colon was above 100 µM each time.

As to `Cc1cc(NS(=O)(=O)c2ccc(NC(=O)c3cccc4cc5ccccc5nc34)cc2)no1`, the TGI was determined as 37 µM with A498 renal; 46.7 µM with CAKI-1 renal; 54.3 µM in the assay with CCRF-CEM leukemia; 53.4 µM in the assay on COLO 205 colon; 39.3 µM with NCI-H23 lung; 45.5 µM in the assay on OVCAR-3 ovarian. Moreover, the figures for the TGI in the assay on SK-MEL-2 melanoma and with SW-620 colon were 41.4 µM and 70.2 µM, respectively.

`CC1C=CC(C)C2(O)C(=O)NC(O)C12` (stereo unspecified): the TGI in the assay with A498 renal, in the assay with CAKI-1 renal, in the assay on CCRF-CEM leukemia, in the assay on COLO 205 colon, in the assay on HL-60(TB) leukemia and in the assay on SK-MEL-2 melanoma was above 100 µM each time. For the same compound, in the assay with SW-620 colon, the TGI is above 100 µM.

For `Cc1cc(Cl)ccc1NC(=O)CC1SC(N)=NC1=O` (stereo unspecified), the TGI in the assay with A498 renal, in the assay on CAKI-1 renal, with CCRF-CEM leukemia, in the assay with COLO 205 colon, with HL-60(TB) leukemia and with NCI-H23 lung was above 100 µM throughout. The TGI in the assay with OVCAR-3 ovarian, in the assay on SK-MEL-2 melanoma and in the assay on SW-620 colon was above 100 µM each time.

As for `C=CCC12CC(=O)C=C1CCC1(C2)OCCO1` (stereo unspecified), the TGI with A498 renal, in the assay on CAKI-1 renal, in the assay with CCRF-CEM leukemia, in the assay on COLO 205 colon, with HL-60(TB) leukemia and in the assay on OVCAR-3 ovarian was above 100 µM throughout. For the same compound, the TGI with SK-MEL-2 melanoma and in the assay on SW-620 colon was above 100 µM in each case.

(Values after PubChem BioAssay (NCI).)
